Experimental data: patent US9480664B2, “Compositions and methods for treating cancer” (Augusta University Research Institute, Inc., priority 2014, dated 2016)

Columns and labels:
[1] = tested on: B6 mice subjected to ischemic stroke; experiment: Ischemic stroke in B6 mice supplemented with 20-OH PGE2; format: in vivo, mouse; settings: 20-OH PGE2 250 ng/h via osmotic pump, 7 days, vs vehicle
Description: B6 mice were divided into two groups: one supplemented with 20-OH PGE2 (250 ng/h in an osmotic pump) and one given vehicle. After one week of treatment, the mice were subjected to ischemic stroke.
Although 20-OH PGE2 elicits beneficial protective effects in brain endothelial cells under OGD/Rep, the precise role of 20-OH PGE2 in ischemic stroke is still to be defined. To determine the effects of 20-OH PGE2 supplementation on stroke damage, B6 mice were treated with 20-OH PGE2 (Cayman) (administered via an osmotic pump (Alzet) at a dose of 250 ng/h) or vehicle for 7 days. The effects of 20-OH PGE2 on infarct size and neurological deficit after ischemic stroke were examined.

plasma eicosanoids = experiment: Plasma 20-HETE and other eicosanoids in MC38 tumor mice (LC/MS/MS); format: in vivo, mouse; settings: 3 weeks; for Plasma 20-HETE levels / Plasma levels of EETs/DHETs, 5-HETE, 8-HETE, 11-HETE, 15-HETE: rofecoxib 50 mg/l, HET0016 5 mg/kg/day i.p. given with rofecoxib, FIG. 6A
Description: After 3 weeks of different treatments, MC38 tumor mice were anesthetized with 2% isoflurane delivered by an anesthesia apparatus. About 0.6 ml of venous blood was collected from mice using a 1-ml syringe containing sodium citrate. The samples were centrifuged at 2,400×g for 15 min to obtain platelet-free plasma. To stabilize eicosanoids in plasma samples, 10 μl combinations of antioxidants (EDTA (0.2 mg/l), butylated hydroxytoluene (0.2 mg/l), and triphenyphosphine (2 mg/l)) were added to each plasma sample. The plasma samples were stored at −80° C. until LC/MS/MS analysis. Plasma samples were spiked with 10 ng of 15(S)-HETE-d8, applied to preconditioned SEP Pak C18 cartridges (100 mg adsorbent, Waters), and washed with water followed by hexane. Eicosanoids were eluted with 500 μl of ethyl acetate-hexane (3:1). The eluate was dried under nitrogen and reconstituted in methanol: 25 mM aqueous ammonium acetate (7:3). The extracted and reconstituted sample was subjected to HPLC (Shimadzu Prominence XR system) on a Max-RP C18 column (2×150 mm, 3 μu, Phenomenex) isocratically eluted with methanol:13 mM aqueous ammonium acetate (8:2) at a flow rate of 0.4 ml/min. The eluent was monitored for 20-HETE, EETs (5,6-EET, 8,9-EET, 11,12-EET, 14,15-EET), DHETs (5,6-DHET, 8,9-DHET, 11,12-DHET, 14,15-DHET), 5-HETE, 8-HETE, 11-HETE, 15-HETE, PGJ2, PGE2, TXB2, and 15keto-PGE2 by mass spectrometer (QTRAP5500, ABSCIEX) in the negative ion mode using Multiple Reaction Monitoring under optimized conditions. 15(S)-HETE-d8 was used as the internal standard for recovery and quantitation. The concentrations of eicosanoids were determined by comparing the ratio of ion intensity of each eicosanoid versus that of 15(S)-HETE-d8, as described previously (Chen, et al., Prostaglandins Other Lipid Mediat 104-105:42-48 (2013); Maddipati, et al., Prostaglandins Other Lipid Mediat 94:59-72 (2011)).

MC38 cells [2] = experiment: MC38 cell proliferation by BrdU ELISA assay; format: cell-based, mouse; settings: 48 h
Description: MC38 cells were seeded at a density of 5×10^3 cells/well in 10% FBS/DMEM in 96-well plates. […] BrdU ELISA assay was done using an ELISA kit (CycLex Co., Nagano, Japan). Briefly, 3 h before assay, BrdU (10 μM final concentration) was added to the 96-well plates containing MC38 cells given different incubation conditions. After 3 h of incubation, the culture medium was removed, and fixed with Fixing/Denaturing solution (200 μl/well) at room temperature for 30 min. After removing Fixing/Denaturing solution, plates were incubated with monoclonal anti-BrdU antibody (50 μl/well) at room temperature for 1 h. Plates were washed five times with Wash buffer (200 μl/well), then incubated with the secondary antibody (50 μl/well) at room temperature for 1 h. After removing the secondary antibody and doing a second wash procedure, plates were incubated with Substrate Reagent (50 μl/well) at room temperature for 15 min in the dark. The reaction was then stopped by adding Stop Solution (50 μl/well). The absorbance in each well was measured using a Tecan GENios Plus microplate reader at dual wavelengths of 450/540 nm.

MC38 cells [3] = experiment: MC38 cell growth by counting cell numbers; format: cell-based, mouse; settings: single agent 100 nM to 10 μM, 48 h, serum-free medium + EGF 200 ng/ml; FIG. 3A/3B
Description: For cell growth experiments, cells were seeded onto 6-well plates at a density of 2.5×10^5 cells/well. […] After 48 h of treatment, cells were collected using 0.25% trypsin-EDTA and counted using a hemocytometer.

[4] = tested on: 20-HETE production in MC38 cells; experiment: 20-HETE production in cultured MC38 cells (LC/MS/MS); format: cell-based, mouse; settings: HET0016 1 μM vs vehicle; FIG. 1C
Description: (§1) MC38 cells were maintained in complete medium consisting of DMEM supplemented with 10% heat-inactivated FBS, […] streptomycin, and 100 U/ml penicillin in a humidified incubator at 37° C. with 5% CO2. Sub-confluent cultured cells were harvested by washing T-75 flasks two times with Ca^2+- and Mg^2+-free Earl's balanced salts, followed by 2 min incubation with 0.25% trypsin-EDTA (Life Technologies, Grand Island, N.Y.) at 37° C. A human cerebral microvascular endothelial cell line (HCMECL) was used in the studies (University of Georgia, Athens, Ga.). Primary rat brain microvascular endothelial cells (RBMEC) were prepared as described previously (Prakash, et al., Diabetes 61:97 1533-1542 (2012)). HCMECL and RBMEC were maintained in MCDB-131 complete medium (VEC Technologies, Rensselaer, N.Y.).
(§2) MC38 cells were collected using 0.25% trypsin-EDTA. After centrifugation, a cell pallet was re-suspended in 300 μl of PBS. […] The concentrations of 20-HETE in media and cell lysates were determined by Liquid Chromatography—Tandem Mass Spectrometry (LC/MS/MS) using 15(S)-HETE-d8 as an internal standard as described previously (Chen, et al., Prostaglandins Other Lipid Mediat 104-105:42-48 (2013)). […] The concentrations of PGE2 in media and cell lysates were determined by an ELISA kit (Cayman Chemical, Ann Arbor, Mich.) according to the manufacturer's instructions.

subcutaneous MC38 tumors = experiment: Tumor growth in MC38 colon tumor-bearing C57BL/6J mice; format: in vivo, mouse; settings: HET0016 5 or 10 mg/kg/day i.p.; rofecoxib 50 mg/l in drinking water; combination compared with rofecoxib alone; FIG. 5
Description: 8-week-old male C57BL/6J mice were subcutaneously injected with MC38 cells (1.4×10^6 cells/mouse) to induce colon tumor. […] All treatments were done for 21 days. Rofecoxib (50 mg/l) was suspended in drinking water containing 1% (vol/vol) PEG 400 (Sigma-Aldrich) and 0.5% (wt/vol) 2-hydroxypropyl-β-cyclodextrin (Sigma-Aldrich). The formula and dose of rofecoxib were prepared according to a previous publication (Liu, et al., Proc Natl Acad Sci USA 107: 17017-17022 (2010)). Tumor growth rates were monitored by measuring tumor volume with a sliding caliper on day 9 or day 18 after cell-implantation. The volumes of tumors were calculated from the major dimension (L) and minor dimension (S), using the equation: tumor volume=L×(S)2/2 as described previously (Konson, et al., Cancer Gene Ther 11: 830-840 (2004)).

[5] = tested on: PGE2 production in MC38 cells; experiment: PGE2 production in MC38 cells (PGE2 ELISA); format: cell-based, mouse; settings: dose response; FIG. 2C
Description: as §1, §2

[6] = tested on: MC38 tumor mice subjected to thromboembolic stroke; experiment: Thromboembolic ischemic stroke in MC38 tumor mice: neurovascular injury and functional outcome; format: in vivo, mouse
Description: Age-matched non-tumor mice were usedas control. At the end of the treatment period, mice were subjected to thromboembolic stroke. Under isoflurane anesthesia, the right common carotid artery, the right external carotid artery (ECA), and the right internal carotid artery were exposed through a middle incision on the ventral side of the neck. A PE 10 catheter containing a fibrin-rich clot was gently inserted from the ECA stump into the distal internal carotid artery just proximal to the origin of the middle cerebral artery (MCA). Each clot (˜1 cm), prepared from a donor mouse, was injected with 75 μl of sterile PBS; after 2 min, the catheter was withdrawn as described previously (Hoda, et al., Exp Transl Stroke Med 3:16 (2011)). Occlusion was confirmed by a ≧70% drop in cerebral blood flow as compared to the pre-ischemic value. The success rate of thromboembolic MCA occlusion was 95% based on changes in cerebral blood flow. At day 3 after surgery, mice were first evaluated for functional outcome, then sacrificed for evaluation of neurovascular injury including infarct size and bleeding. Extracted brains were analyzed for infarct size in coronal slices of 2 mm thickness, labeled A-G, front to back. Hemorrhagic transformation (HT), secondary bleeding into the brain after ischemic stroke was evaluated by the presence of visible macroscopic bleeding and measured in a binary fashion: yes or no. Number of animals that had HT was reported per group. 2, 3, 5-Triphenyltetrazolium chloride (TTC), a mitochondria stain, was used to outline the infarct area. The captured images were numerically labeled and analyzed using specialized KS300 software. Infarct size was expressed as a percentage of the contralateral hemisphere. Neurologic deficits in mice given different treatments were assessed at 24 h and 72 h after stroke, using a 5-point scale for scoring: 0, no deficit; 1, forelimb flexion deficit on contralateral side; 2, decreased resistance to lateral push and torso turning to the ipsilateral side when held by tail; 3, significant circling to the affected side and reduced capability to bear weight on the affected side; 4, rarely moved spontaneously and preferred to stay at rest.

[7] = Water intake and body weight of treated mice; format: in vivo, mouse; settings: rofecoxib 50 mg/l in drinking water, n=5
Description: In a complementary experiment, the water intake and body weight of mice treated with water, vehicle, and rofecoxib (50 mg/l) was determined. Neither vehicle (3.02±0.17 vs. 3.16±0.16 ml/24 h/mouse, n=5) nor rofecoxib (3.07±0.1 vs. 3.16±0.16 ml/24 h/mouse, n=5) treatment affected water intake. Likewise, there was no significant change of body weight among water (24±1.63 g/mouse, n=5), vehicle (23.8±1.1 g/mouse, n=5), and rofecoxib (24.5±1.0 g/mouse, n=5) group.

Cyp4a = Cyp4a expression in liver and kidney of MC38 tumor mice (Western blot); format: in vivo, mouse; settings: 3-week rofecoxib treatment, FIG. 6C

Row | Compound | Infarct size after ischemic stroke ([1]; FIG. 10A) | Neurological deficits after ischemic stroke ([1]; FIG. 10B) | Plasma 20-HETE levels (plasma eicosanoids) | Plasma levels of EETs/DHETs, 5-HETE, 8-HETE, 11-HETE, 15-HETE (plasma eicosanoids) | Plasma PGJ2, PGE2, TXB2 and 15 keto-PGE2 levels (plasma eicosanoids; HET0016 5 mg/kg/day i.p., FIG. 6B) | BrdU incorporation into MC38 cells (MC38 cells [2]; 100 nM to 10 μM, serum-free medium + EGF 200 ng/ml, FIG. 4A) | MC38 cell growth (cell number/well) (MC38 cells [3]) | 20-HETE production and secretion in MC38 cell media [4] | Tumor size on day 9 post implantation (subcutaneous MC38 tumors) | Tumor size on day 18 post-implantation (subcutaneous MC38 tumors) | PGE2 production in MC38 cells [5] | Mortality after ischemic stroke ([6]; 3 weeks treatment, rofecoxib 50 mg/l, HET0016 5 mg/kg/day i.p.) [%] | Animals that developed HT ([6]; C57BL/6J, mouse, in vivo, 3 weeks) | Functional outcome (neurological deficit score) ([6]; mouse, in vivo) | Infarct size ([6]; rofecoxib compared to control mice, combination compared to rofecoxib, FIG. 8B) | Body weight [7] [g/mouse] | Water intake ([7]; water group 3.16±0.16) [ml/24 h/mouse] | BrdU incorporation into MC38 cells at 1 μM (MC38 cells [2]; 1 μM (combination 1 μM each, compared with rofecoxib alone), FIG. 4B/4C) | cyp4a expression in the liver and kidney (Cyp4a)
1 | O=C(O)CCC/C=C\C[C@H]1C(=O)C[C@@H](O)[C@@H]1/C=C/[C@@H](O)CCCCCO [20-OH PGE2] | reduced | reduced | – | – | – | – | – | – | – | – | – | – | – | – | – | – | – | – | –
2 | CCCCc1ccc(N=CNO)c(C)c1 [HET0016, N-Hydroxy-N′-(4-butyl-2-methylphenyl)formamidine] | – | – | selectively reduced plasma 20-HETE levels | without affecting | did not affect | inhibited the incorporation of BrdU in a concentration dependent manner | inhibited cell growth | effectively blocked 20-HETE production and secretion | did not affect tumor size | dose-dependently reduced tumor size | – | – | – | – | – | – | – | – | –
3 | CS(=O)(=O)c1ccc(C2=C(c3ccccc3)C(=O)OC2)cc1 [rofecoxib] | – | – | selectively increased 20-HETE plasma levels | no significant changes | – | – | inhibited cell growth | – | significantly reduced tumor size | significantly reduced tumor size | dose-dependently inhibited PGE2 production | ~30 | 4 out of the 5 | neurological deficit scores were higher | reduced the size of infarcts | 24.5±1.0 | 3.07±0.1 | significantly inhibited BrdU incorporation | had no effect on cyp4a expression
